Where two headings read alike, the source gives them in different places.
What was measured:
DPP-VIII = molecular target: T1, DPP-VIII (Homo sapiens, UniProt Q6V1X1); assay: DPP-VIII inhibition, Promega DPPIV-Glo Protease Assay; type: biochemical; conditions: read-out: IC50 DPP8
T1 construct: purchased Bioscience 80080
Method: (§1) The compounds of the present invention were tested to determine their DPP-IV, DPP-VIII, DPP-IX inhibition activity according to the following methods. The half inhibition concentrations IC50 (the concentration of the test compound showing 50% inhibition to the enzyme activity) of each compound were determined by reaction test and calculation of the mixture of fixed amounts of enzyme and substrate with several different concentrations of the test compounds.
(§2) The compounds of the present invention were tested to determine the DPP-IV, DPP-VIII, DPP-IX inhibition activity in the following tests using Promega DPPIV-Glo™ Protease Assay (Cat No. G8350/G8351) Kit, wherein:
b. DPP-VIII enzyme bought from Bioscience, Catalog no. 80080;
(§3) The preparation procedure of the conventional reagent such as DPPIV-Glo buffer, luciferin reagents needed in the test and the detail operation of the test can refer to the specifications of the kits. The assay was carried out as following steps:
(§4) The tested compounds were dissolved in DMSO to prepare a series of different concentrations of the test compound solution. DPPIV-Glo buffer and the freezing luciferin detection reagent were equilibrated to room temperature. The luciferin detection reagent was dissolved in moderate buffer in a brown flask to form a solution. Then DPP-IV-Glo. was dissolved in ultrapure water to give the appropriate concentration. The substrate solution and the luciferin detection reagent solution were mixed sufficiently in an appropriate ratio (the ratio of the invention is 1:49), and the mixture was layed at room temperature for 30-60 minutes. Tris buffer (2 mM, pH 8.0), the test compounds and DPP-IV (DPP-VIII or DPP-IX) were mixed and then transferred to a 96-well plate. Each test contains double-well of three-well control. The same volume of DMSO was added to the negative control and blank control. Then the 96-well plate was added with mixed solution of luciferin detection reagent and substrate to initiate the reaction. The 96-wells plate was incubated at room temperature on a plate shaker for 40 minutes after sealed. The strength of the fluorescent signal in each well was determined by microplate reader and the inhibition rate to the enzyme of the compound at this concentration was calculated by the formula as following: inhibitory rate: IR=[1−(S−B)/(N−B)]*100% • S: value of the sample • B: value of the blank control • N: value of the negative control
(§5) IC50 of the test compounds can be calculated by the inhibition rate at different concentration.

DPP-IX = molecular target: T2, DPP-IX (Homo sapiens, UniProt Q86TI2); assay: DPP-IX inhibition, Promega DPPIV-Glo Protease Assay; type: biochemical; conditions: read-out: IC50 DPP9
T2 construct: purchased Bioscience 80090
T2 sequence (Q86TI2 whole entry): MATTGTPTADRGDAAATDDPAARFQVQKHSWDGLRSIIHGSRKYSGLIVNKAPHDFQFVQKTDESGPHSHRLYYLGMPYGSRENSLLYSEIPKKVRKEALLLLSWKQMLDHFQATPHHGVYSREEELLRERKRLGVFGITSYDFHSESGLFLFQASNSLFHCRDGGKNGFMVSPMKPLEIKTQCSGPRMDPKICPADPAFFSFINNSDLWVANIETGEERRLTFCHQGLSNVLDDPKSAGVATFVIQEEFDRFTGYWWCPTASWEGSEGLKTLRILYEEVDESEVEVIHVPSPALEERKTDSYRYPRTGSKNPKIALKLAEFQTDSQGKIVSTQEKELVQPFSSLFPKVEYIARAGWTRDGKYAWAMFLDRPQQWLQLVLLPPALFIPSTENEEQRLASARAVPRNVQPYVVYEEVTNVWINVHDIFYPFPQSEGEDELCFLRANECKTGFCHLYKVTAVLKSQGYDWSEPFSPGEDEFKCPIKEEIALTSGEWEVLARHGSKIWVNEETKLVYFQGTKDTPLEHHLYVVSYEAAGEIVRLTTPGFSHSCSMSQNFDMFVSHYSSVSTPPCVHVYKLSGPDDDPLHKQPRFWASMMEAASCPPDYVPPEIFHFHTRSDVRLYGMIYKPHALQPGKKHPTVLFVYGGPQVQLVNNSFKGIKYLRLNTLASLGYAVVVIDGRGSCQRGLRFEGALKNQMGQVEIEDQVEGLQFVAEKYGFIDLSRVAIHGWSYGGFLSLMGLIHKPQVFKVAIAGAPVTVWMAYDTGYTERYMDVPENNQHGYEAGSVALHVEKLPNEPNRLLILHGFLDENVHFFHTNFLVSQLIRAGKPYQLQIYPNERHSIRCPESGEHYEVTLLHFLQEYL
Method: as §1, §2
c. DPP-IX enzyme bought from Bioscience, Catalog no. 80090.
as §3, §4, §5

[1] = Solubility experiment in four systems; type: physicochemical
Method: According to the conventional solubility measurement, the solubility of the test samples were determined in four different systems: phosphate buffer solution (PBS, pH=7.4), methanol, 0.1% hydrochloric acid and water.

DPP-IV = molecular target: T3, DPP-IV (Homo sapiens, UniProt P27487); assay: DPP-IV inhibition, Promega DPPIV-Glo Protease Assay; type: biochemical
T3 construct: purchased Calbiochem 317630
T3 sequence (P27487 whole entry): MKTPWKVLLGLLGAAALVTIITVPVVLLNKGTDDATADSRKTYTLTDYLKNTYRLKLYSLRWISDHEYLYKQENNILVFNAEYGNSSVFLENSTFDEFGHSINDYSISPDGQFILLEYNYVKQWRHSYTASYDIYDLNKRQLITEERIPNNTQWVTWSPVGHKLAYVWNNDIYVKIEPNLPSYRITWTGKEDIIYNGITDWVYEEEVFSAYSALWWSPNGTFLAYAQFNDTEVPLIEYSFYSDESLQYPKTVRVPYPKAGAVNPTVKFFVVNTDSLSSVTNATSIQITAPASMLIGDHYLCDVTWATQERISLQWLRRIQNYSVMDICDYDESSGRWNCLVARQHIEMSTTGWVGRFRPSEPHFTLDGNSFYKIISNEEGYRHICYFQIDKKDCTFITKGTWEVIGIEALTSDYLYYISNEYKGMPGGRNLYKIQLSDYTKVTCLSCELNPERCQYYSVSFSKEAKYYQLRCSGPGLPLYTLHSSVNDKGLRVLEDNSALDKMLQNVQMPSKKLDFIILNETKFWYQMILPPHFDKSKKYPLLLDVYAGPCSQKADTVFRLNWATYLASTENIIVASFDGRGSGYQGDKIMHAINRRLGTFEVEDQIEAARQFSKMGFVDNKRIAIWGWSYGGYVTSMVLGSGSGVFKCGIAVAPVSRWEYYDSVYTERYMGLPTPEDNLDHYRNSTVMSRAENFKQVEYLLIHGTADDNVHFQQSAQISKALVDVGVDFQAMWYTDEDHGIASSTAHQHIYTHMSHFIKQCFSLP
Method: as §1, §2
a. DPP-IV enzyme bought from Calbiochem, Catalog no. 317630;
as §3, §4, §5

normal ICR mice = assay: Hypoglycemic effect, oral glucose tolerance in normal ICR mice; type: in vivo; conditions: 10 mg/kg by gavage, glucose 4 g/kg 15 minutes after administration, 10 mg/kg
Method: To observe the effects on oral glucose tolerance of the compounds of Example 1-4 and Example 8-12 in normal ICR mice (SINO-BRITSH SIPPR/BK LAB.ANIMAL LTD., CO), the hypoglycemic effects in vivo have been evaluated using blood-glucose meter to measure and analyze the sugar content of the samples at different time points during 2 hours. The samples were taken from the mouse's tail.
The administration dose was 10 mg/kg, and the blank was administered with water. Both groups contained 5% DMSO.
The mice were administered by gavage. 4 g/kg of 10% glucose solution was administered (0.8 mL to each mice) 15 minutes after administration.
The mice were administered according to above dose (the blank group was administrated with 5% DMSO aqueous solution) and the blood sugar value was measured (−15 minutes).
15 minutes after administration, the mice were administered of 4 g/kg of 20% glucose solution and the values of blood sugar were tested by Roche ACCU-CHEK at 0, 15, 30, 45, 60, 120 minutes.

T1 sequence (Q6V1X1 whole entry): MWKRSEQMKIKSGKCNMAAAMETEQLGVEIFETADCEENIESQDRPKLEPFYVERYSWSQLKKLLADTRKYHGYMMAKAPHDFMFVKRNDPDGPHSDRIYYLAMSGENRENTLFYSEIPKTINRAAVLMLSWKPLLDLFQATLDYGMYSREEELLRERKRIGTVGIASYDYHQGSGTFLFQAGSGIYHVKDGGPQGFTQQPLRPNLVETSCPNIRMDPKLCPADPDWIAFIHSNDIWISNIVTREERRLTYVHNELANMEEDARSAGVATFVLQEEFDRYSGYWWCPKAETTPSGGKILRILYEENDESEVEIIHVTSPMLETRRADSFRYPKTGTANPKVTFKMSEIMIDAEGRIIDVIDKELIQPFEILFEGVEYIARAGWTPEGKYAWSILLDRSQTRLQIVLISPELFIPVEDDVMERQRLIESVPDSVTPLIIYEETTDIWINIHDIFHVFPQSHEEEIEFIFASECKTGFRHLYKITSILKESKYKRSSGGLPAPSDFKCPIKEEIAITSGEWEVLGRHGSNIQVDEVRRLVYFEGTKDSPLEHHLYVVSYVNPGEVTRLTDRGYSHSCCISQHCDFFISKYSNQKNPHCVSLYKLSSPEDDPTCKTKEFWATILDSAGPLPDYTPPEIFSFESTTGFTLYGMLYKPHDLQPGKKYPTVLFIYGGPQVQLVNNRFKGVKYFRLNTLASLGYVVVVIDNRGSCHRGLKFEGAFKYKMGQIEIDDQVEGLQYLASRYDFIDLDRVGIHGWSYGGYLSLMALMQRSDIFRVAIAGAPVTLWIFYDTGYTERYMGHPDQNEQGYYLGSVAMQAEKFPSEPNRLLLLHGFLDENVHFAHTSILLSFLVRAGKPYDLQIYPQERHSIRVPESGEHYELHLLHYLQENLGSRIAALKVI

| Structure (SMILES) | IC50 (DPP-VIII) | IC50 (DPP-IX) | solubility ([1]; 0.1% hydrochloric acid, simulated gastric fluid, 0.1% hydrochloric acid, read-out: Solubility Value, 0.1% HCl) | solubility ([1]; methanol, organic solvent or mixture, methanol, read-out: Solubility Value, methanol) | solubility ([1]; phosphate buffer solution (PBS), pH 7.4, aqueous buffer, PBS pH 7.4, read-out: Solubility Value, PBS (pH 7.4)) | solubility ([1]; water, read-out: Solubility Value, water) | IC50 (DPP-IV) | Hypoglycemic rate of blood sugar of 30 minutes after administration (normal ICR mice) | Solubility Value, 0.1% HCl ([1]; 0.1% hydrochloric acid) | Solubility Value, PBS (pH 7.4) ([1]; PBS pH 7.4) | Solubility Value, methanol ([1]; methanol) | Solubility Value, water ([1]; water) |
| --- | --- | --- | --- | --- | --- | --- | --- | --- | --- | --- | --- | --- |
| N[C@@H](CC(=O)N1CCn2c(C(F)(F)F)nc(C(=O)[O-])c2C1)Cc1cc(F)c(F)cc1F.[Li+] [Example 5, Lithium (R)-7-[3-amino-4-(2,4,5-trifluorophenyl)butanoyl]-3-trifluoromethyl-5,6,7,8-tetrahydro-imidazo[1,5-a]pyrazine-1-carboxylate] | 80.5 µM | 50.6 µM | 101 mg/mL | 50.3 mg/mL | 60.5 mg/mL | 40.2 mg/mL | 25 nM |  |  |  |  |  |
| N[C@@H](CC(=O)N1CCn2c(C(F)(F)F)nc(C(=O)O)c2C1)Cc1cc(F)c(F)cc1F [Example 10, 2-Hydroxyethyl(trimethyl)ammonium (R)-7-[3-Amino-4-(2,4,5-trifluorophenyl)-butanoyl]-3-trifluoromethyl-5,6,7,8-tetrahydro-imidazo[1,5-a]pyrazine-1-carboxylate] | 210 µM | 166 µM |  |  |  |  | 23 nM | 20.92% | 15.2 mg/mL | 1.2 mg/mL | 40.3 mg/mL | 1.5 mg/mL |
| N[C@@H](CC(=O)N1CCn2c(C(F)(F)F)nc(C(=O)O)c2C1)Cc1cc(F)c(F)cc1F [Example 8, Triethylammonium (R)-7-[3-amino-4-(2,4,5-trifluorophenyl)butanoyl]-3-(trifluoromethyl)-5,6,7,8-tetrahydro-imidazo[1,5-a]pyrazine-1-carboxylate] | 152 µM | 136 µM |  |  |  |  |  | 19.82% | 8.3 mg/mL | 0.2 mg/mL | 20.1 mg/mL | 0.5 mg/mL |

— US8518946B2, “Salts of (R)-7-[3-amino-4-(2,4,5-trifluorophenyl)butanoyl]-3-trifluoromethyl-5,6,7,8-tetrahydroimidazo[1,5-a] pyrazine-1-carboxylic acid, preparation method and medical use thereof” (Jiangsu Hengrui Medicine Co., Ltd., priority 2009, dated 2013)
